One series deals with marmosets. The conditions noted are these: cited from earlier work.
For series [1] the following is noted: animal models; cited from earlier work.
The conditions of series [2]: cited from earlier work.
Series [3] concerns the target T1, human 5-HT1A receptor (Homo sapiens, UniProt P08908).
T1 construct: expressed in transfected cells; host or cells: CHO cells (stably transfected)
T1 sequence (P08908 1-422): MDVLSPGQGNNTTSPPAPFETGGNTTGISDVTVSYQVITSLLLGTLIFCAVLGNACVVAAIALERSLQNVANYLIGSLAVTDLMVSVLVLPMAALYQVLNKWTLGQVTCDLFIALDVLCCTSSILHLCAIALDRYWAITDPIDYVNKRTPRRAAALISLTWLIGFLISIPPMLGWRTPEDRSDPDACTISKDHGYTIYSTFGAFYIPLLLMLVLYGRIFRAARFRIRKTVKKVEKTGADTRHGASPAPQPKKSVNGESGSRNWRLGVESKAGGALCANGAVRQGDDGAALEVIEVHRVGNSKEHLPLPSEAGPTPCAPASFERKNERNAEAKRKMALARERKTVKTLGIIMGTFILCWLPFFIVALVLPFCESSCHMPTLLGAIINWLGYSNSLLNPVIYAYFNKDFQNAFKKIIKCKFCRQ
Description: Antagonism of 8-OH-DPAT inhibition of forskolin-stimulated cyclic-AMP turnover in transfected CHO cells. The format is cell-based. To be noted: CHO cells with human 5-HT1A receptor, read-out: cAMP IC50.

Series [4] deals with T1, human 5-HT1A receptor. Briefly: Serotonin 5-HT1A binding, displacement of [3H]8-OH-DPAT. To be noted: [3H]8-OH-DPAT displacement, CHO cells stably transfected with human 5-HT1A receptor. From the text:
Affinity for the serotonin 5-HT1A receptor was established by assaying the test compound's ability to displace [^3H]8-OH-DPAT from its binding site on the receptor complex in CHO cells stably transfected with the human 5-HT1A receptor following the procedure described by Dunlop et al., J. PharmacoL ToxicoL Methods 1998, 40, 47.
(In general: Displacement assays read how much labelled ligand stays bound in the presence of the test substance.)

The conditions of series [5]: in vivo; cited from earlier work.
The next series deals with LNCaP. To be noted: in vitro; cited from earlier work.
The subject of another series is DU-145. The conditions noted are these: DU-145, in vitro; cited from earlier work.
The test system of another series is PC3. The conditions noted are these: PC3, in vitro; cited from earlier work.
The subject of the next series is PC3 cell line. The conditions noted are these: athymic nude mice; cited from earlier work.

Where a name gives a salt, the structure may show the parent alone. Read-outs that look alike come from different tables or passages of the source.

Here are results for 14 compounds from patent publication US7179813B2, “Bicyclic indolyl derivatives and methods for their use as serotonergic agents” (Wyeth, priority 2003, dated 2007).

In the case of `COc1ccccc1N1CCN(CCN(C(=O)C2CCCCC2)c2ccccn2)CC1` [WAY-100635], in the series on marmosets, the “cognitive deficits induced by fomix lesions” value is on record as “reversed the cognitive deficits”. In addition, the “anxiogenic behaviors induced by nicotine withdrawal” value (“anxiogenic behaviors induced” below) in series [1] is “blocked”.

For the compound `OC(CNC1CCCCC1)COc1cccc2[nH]ccc12` (centres unmarked) [LY206130], in [1], the “anxiogenic behaviors induced” value is reported as “blocked”.

On to `COc1ccccc1N1CCN(CCCCN2C(=O)c3ccccc3C2=O)CC1` [NAN-190], for which the “anxiogenic behaviors induced” value in series [1] is recorded as “blocked”.

As for `CC(C)NCC(O)COc1cccc2[nH]ccc12` (centres unmarked) [pindolol], the “median time needed to achieve a sustained antidepressant response” value in series [2] (co-administered with the SSRI fluoxetine) and in series [2] (co-administered with the SSRI paroxetine) was “significantly reduced the median time” in each case.

Usually IC50 stands for the concentration needed to halve the response being measured. For orientation: Ki means the equilibrium dissociation constant of an inhibitor or competing ligand from its target. With `C[C@H](CN(C(=O)[C@H]1CC2CCC1CC2)c1ccccn1)N1CCN(c2cccc3[nH]ccc23)CC1` [Example 1, (S)-N-{(2R)-2-[4-(1H-Indol-4-yl)piperazin-1-yl]propyl}-N-pyridin-2-yl-bicyclo[2.2.2]octane-2-carboxamide], the half-inhibitory concentration (IC50) on human 5-HT1A receptor [3] was found to be 4.1 nM. The same compound displayed a Ki on human 5-HT1A receptor [4] of 0.68 nM.

As to `COc1ccccc1N1CCN(CC(C(=O)NC(C)(C)C)c2ccccc2)CC1` (centres unmarked) [WAY-100135], the “impairment of spatial learning caused by intrahippocampal scopolamine” value in series [5] is reported as “prevented the impairment of spatial learning”.

Regarding `COc1ccccc1N1CCN(CC[C@](C)(C(=O)C2CCCCC2)c2ccccc2)CC1` [LY 426965], the “anxiogenic behaviors induced” value in [1] is given as “blocked”.

What is called melting point is the temperature, or range, at which the solid turns liquid. `C[C@H](CN(C(=O)[C@H]1CC2CCC1CC2)c1ccccn1)N1CCN(c2cccc3[nH]ccc23)CC1` (as salt: hydrochloride) [Example 1, (S)-N-{(2R)-2-[4-(1H-Indol-4-yl)piperazin-1-yl]propyl}-N-pyridin-2-yl-bicyclo[2.2.2]octane-2-carboxamide] yielded a melting point of 180 to 182 °C.

Regarding `C[C@H](CN(C(=O)C1C2CCC1CC2)c1ccccn1)N1CCN(c2cccc3[nH]ccc23)CC1` (stereo partly drawn) [Example 3, N-{(2R)-2-[4-(1H-Indol-4-yl)piperazin-1-yl]propyl}-N-pyridin-2-yl-bicyclo[2.2.1]heptane-7-carboxamide], the concentration for half-maximal inhibition (IC50) on human 5-HT1A receptor [3] amounted to 74.5 nM. Besides, the Ki on human 5-HT1A receptor [4] is 0.98 nM.

For pindobind, the antineoplastic activity entry in the series on LNCaP, in the series on DU-145 and with PC3 was “antineoplastic activity” each time. The “growth of the PC3 cell line in vivo” value in the series on PC3 cell line is on record as “inhibited the growth”.

The compound `C[C@H](CN(C(=O)C1(C)C2CCC1CC2)c1ccccn1)N1CCN(c2cccc3[nH]ccc23)CC1` (stereo partly drawn) (as salt: hydrochloride) [Example 4, N-{(2R)-2-[4-(1H-indol-4-yl)piperazin-1-yl]propyl}-7-methyl-N-pyridin-2-yl-bicyclo[2.2.1]heptane-7-carboxamide] showed a melting point of 236 to 238 °C.

`C[C@H](CN(C(=O)C1(C)C2CCC1CC2)c1ccccn1)N1CCN(c2cccc3[nH]ccc23)CC1` (stereo partly drawn) [Example 4, N-{(2R)-2-[4-(1H-indol-4-yl)piperazin-1-yl]propyl}-7-methyl-N-pyridin-2-yl-bicyclo[2.2.1]heptane-7-carboxamide]: the IC50 at human 5-HT1A receptor [3] turned out to be 6.7 nM. On human 5-HT1A receptor [4], this compound yielded a Ki of 0.45 nM.

As for `C[C@H](CN(C(=O)C1C2CCC1CC2)c1ccccn1)N1CCN(c2cccc3[nH]ccc23)CC1` (stereo partly drawn) (as salt: hydrochloride) [Example 3, N-{(2R)-2-[4-(1H-Indol-4-yl)piperazin-1-yl]propyl}-N-pyridin-2-yl-bicyclo[2.2.1]heptane-7-carboxamide], the melting point is 176 to 179 °C.

On to `C[C@H](CN(C(=O)[C@@H]1CC2CCC1CC2)c1ccccn1)N1CCN(c2cccc3[nH]ccc23)CC1` [Example 2, (R)-N-[(2R)-2-[4-(1H-Indol-4-yl)-1-piperazinyl]propyl]-N-2-pyridin-2-yl-bicyclo[2.2.2]octane-2-carboxamide], for which the IC50 on human 5-HT1A receptor [3] is 2.2 nM. In addition, on human 5-HT1A receptor [4], the inhibitory constant (Ki) turned out to be 0.69 nM.
